Test results reported in patent publication US6737383B1, “Herbicidal oxadiazolidines” (priority 1999, dated 2004).

Tests used:
[1] = system: corn; test: Test B pre/postemergence corn; assay type: in vivo, Zea mays
Method in brief: (§1)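 Herbicidal effect was estimated by eye on a ten-point control scale after plants spent twelve to sixteen days in a greenhouse following soil or foliar treatment. Foliar sprays targeted plants at one to four leaves; all doses were formulated in a non-phytotoxic solvent with surfactant.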

[2] = system: surinam grass; test: Test B pre/postemergence surinam grass; assay type: in vivo, Brachiaria decumbens
Method in brief: as §1

[3] = system: morningglory; test: Test B pre/postemergence morningglory; assay type: in vivo, Ipomoea hederacea
Method in brief: as §1

[4] = system: pigweed; test: Test B pre/postemergence pigweed; assay type: in vivo, Amaranthus retroflexus
Method in brief: as §1

[5] = system: crabgrass; test: Test B pre/postemergence crabgrass; assay type: in vivo, Digitaria sanguinalis
Method in brief: as §1

[6] = system: wheat; test: Test B pre/postemergence wheat; assay type: in vivo, Triticum aestivum
Method in brief: as §1

[7] = system: bedstraw; test: Test B pre/postemergence bedstraw; assay type: in vivo, Galium aparine
Method in brief: as §1

[8] = system: wild oat; test: Test B pre/postemergence wild oat; assay type: in vivo, Avena fatua
Method in brief: as §1

[9] = system: sugar beet; test: Test B pre/postemergence sugar beet; assay type: in vivo, Beta vulgaris
Method in brief: as §1

[10] = system: cocklebur; test: Test B pre/postemergence cocklebur; assay type: in vivo, Xanthium strumarium
Method in brief: as §1

[11] = system: velvetleaf; test: Test B pre/postemergence velvetleaf; assay type: in vivo, Abutilon theophrasti
Method in brief: as §1

[12] = system: giant foxtail; test: Test B pre/postemergence giant foxtail; assay type: in vivo, Setaria faberii
Method in brief: as §1

[13] = system: rape; test: Test B pre/postemergence rape; assay type: in vivo, Brassica napus
Method in brief: as §1

[14] = system: purple nutsedge; test: Test B pre/postemergence purple nutsedge; assay type: in vivo, Cyperus rotundus
Method in brief: as §1

[15] = system: soybean; test: Test B pre/postemergence soybean; assay type: in vivo, Glycine max
Method in brief: as §1

[16] = system: blackgrass; test: Test B pre/postemergence blackgrass; assay type: in vivo, Alopecurus myosuroides
Method in brief: as §1

[17] = Postemergence, Rate 62 g/ha, scale 0 to 10, 0 is no effect, 10 is complete control
[18] = Postemergence, Rate 125 g/ha, scale of 0 to 10 where 0 is no effect and 10 is complete control
[19] = Preemergence, Rate 62 g/ha, scale of 0 to 10 where 0 is no effect and 10 is complete control
[20] = Preemergence, Rate 125 g/ha, scale of 0 to 10 where 0 is no effect and 10 is complete control
[21] = Preemergence, Rate 250 g/ha, scale 0 (no effect) to 10 (complete control)
[22] = Rate 250 g/ha, Postemergence, scale 0 to 10, 0 is no effect, 10 is complete control
[23] = Rate 500 g/ha, Postemergence, scale 0 to 10, 0 is no effect, 10 is complete control
[24] = Preemergence, Rate 500 g/ha, scale of 0 to 10 where 0 is no effect and 10 is complete control

SMILES: CC(=O)OCC(CCl)n1c(=O)on(C(=O)N(c2ccc(F)cc2F)C(C)C)c1=O (racemic) [Compound 708]
- Plant response rating, Corn [1, 17]: 0
- Corn plant response rating [1, 18]: 0
- Corn plant response rating [1, 19]: 0
- Plant response rating, Corn [1, 20]: 0
- Corn plant response rating [1, 21]: 0
- Corn plant response rating [1, 22]: 0
- Corn plant response rating [1, 23]: 0
- Plant response rating, B. signalgrass [2, 17]: 0
- B. signalgrass plant response rating [2, 18]: 0
- B. signalgrass plant response rating [2, 19]: 0
- Plant response rating, B. signalgrass [2, 20]: 0
- B. signalgrass plant response rating [2, 21]: 0
- Plant response rating, B. signalgrass [2, 24]: 0
- B. signalgrass plant response rating [2, 22]: 0
- B. signalgrass plant response rating [2, 23]: 2
- Plant response rating, Morningglory [3, 17]: 0
- Morningglory plant response rating [3, 18]: 2
- Morningglory plant response rating [3, 19]: 0
- Plant response rating, Morningglory [3, 20]: 0
- Morningglory plant response rating [3, 21]: 0
- Morningglory plant response rating [3, 22]: 2
- Morningglory plant response rating [3, 23]: 5
- Plant response rating, Redroot pigweed [4, 17]: 0
- Redroot pigweed plant response rating [4, 18]: 0
- Redroot pigweed plant response rating [4, 19]: 0
- Plant response rating, Redroot pigweed [4, 20]: 3
- Redroot pigweed plant response rating [4, 22]: 0
- Redroot pigweed plant response rating [4, 23]: 5
- Plant response rating, Crabgrass [5, 17]: 0
- Crabgrass plant response rating [5, 18]: 0
- Crabgrass plant response rating [5, 19]: 6
- Plant response rating, Crabgrass [5, 20]: 7
- Crabgrass plant response rating [5, 21]: 10
- Crabgrass plant response rating [5, 22]: 0
- Crabgrass plant response rating [5, 23]: 4
- Plant response rating, Wheat [6, 17]: 0
- Wheat plant response rating [6, 18]: 0
- Wheat plant response rating [6, 19]: 0
- Plant response rating, Wheat [6, 20]: 0
- Wheat plant response rating [6, 21]: 0
- Wheat plant response rating [6, 22]: 0
- Wheat plant response rating [6, 23]: 0
- Plant response rating, Bedstraw [7, 17]: 0
- Bedstraw plant response rating [7, 18]: 0
- Bedstraw plant response rating [7, 19]: 0
- Plant response rating, Bedstraw [7, 20]: 0
- Bedstraw plant response rating [7, 21]: 0
- Plant response rating, Bedstraw [7, 24]: 0
- Plant response rating, Wild oats [8, 17]: 0
- Wild oats plant response rating [8, 18]: 0
- Wild oats plant response rating [8, 19]: 0
- Plant response rating, Wild oats [8, 20]: 0
- Wild oats plant response rating [8, 21]: 0
- Wild oats plant response rating [8, 22]: 0
- Wild oats plant response rating [8, 23]: 0
- Plant response rating, Sugarbeets [9, 17]: 0
- Sugarbeets plant response rating [9, 18]: 0
- Sugarbeets plant response rating [9, 19]: 0
- Plant response rating, Sugarbeets [9, 20]: 0
- Sugarbeets plant response rating [9, 21]: 0
- Sugarbeets plant response rating [9, 22]: 0
- Sugarbeets plant response rating [9, 23]: 0
- Plant response rating, Cocklebur [10, 17]: 0
- Cocklebur plant response rating [10, 18]: 0
- Cocklebur plant response rating [10, 19]: 0
- Plant response rating, Cocklebur [10, 20]: 0
- Cocklebur plant response rating [10, 21]: 0
- Plant response rating, Cocklebur [10, 24]: 0
- Cocklebur plant response rating [10, 22]: 0
- Cocklebur plant response rating [10, 23]: 0
- Plant response rating, Velvetleaf [11, 17]: 0
- Velvetleaf plant response rating [11, 18]: 0
- Velvetleaf plant response rating [11, 19]: 0
- Plant response rating, Velvetleaf [11, 20]: 0
- Velvetleaf plant response rating [11, 21]: 2
- Velvetleaf plant response rating [11, 22]: 3
- Velvetleaf plant response rating [11, 23]: 5
- Plant response rating, Giant foxtail [12, 17]: 0
- Giant foxtail plant response rating [12, 18]: 2
- Giant foxtail plant response rating [12, 19]: 5
- Plant response rating, Giant foxtail [12, 20]: 7
- Giant foxtail plant response rating [12, 21]: 8
- Giant foxtail plant response rating [12, 22]: 4
- Giant foxtail plant response rating [12, 23]: 5
- Plant response rating, Rape [13, 17]: 0
- Rape plant response rating [13, 18]: 0
- Rape plant response rating [13, 19]: 0
- Plant response rating, Rape [13, 20]: 0
- Rape plant response rating [13, 21]: 0
- Rape plant response rating [13, 22]: 0
- Rape plant response rating [13, 23]: 0
- Plant response rating, Nutsedge [14, 17]: 0
- Nutsedge plant response rating [14, 18]: 0
- Plant response rating, Nutsedge [14, 20]: 0
- Nutsedge plant response rating [14, 21]: 0
- Nutsedge plant response rating [14, 22]: 0
- Nutsedge plant response rating [14, 23]: 0
- Plant response rating, Soybean [15, 17]: 3
- Soybean plant response rating [15, 18]: 4
- Soybean plant response rating [15, 19]: 0
- Plant response rating, Soybean [15, 20]: 0
- Soybean plant response rating [15, 21]: 0
- Soybean plant response rating [15, 22]: 4
- Soybean plant response rating [15, 23]: 4
- Plant response rating, Blackgrass [16, 17]: 0
- Blackgrass plant response rating [16, 18]: 0
- Blackgrass plant response rating [16, 19]: 0
- Plant response rating, Blackgrass [16, 20]: 2
- Blackgrass plant response rating [16, 21]: 3
- Plant response rating, Blackgrass [16, 24]: 5
- Blackgrass plant response rating [16, 22]: 2
- Blackgrass plant response rating [16, 23]: 2
